Data published in article PMC3269548 (Neuropharmacology, 2011).
Values joined by “and” are separate entries in the source; they are usually repeats but may differ in a detail not shown here. Identical values can stand only once. “Also recorded” adds a separate entry of the source. Like-named read-outs stand apart in the source and are kept apart here. Blank lines part the entries; values can stand above or below the compound they belong to.

Assays:
[1] = test system: GluN1/GluN2A-D NMDA receptors; format: cell-based
[2] = test system: GluN1/GluN2A receptors with the NTD deleted on both the GluN1 and GluN2 subunits; assay: Inhibition of NTD-deleted GluN1/GluN2A receptor responses in Xenopus oocytes; format: cell-based
[3] = molecular target: GluN1/GluN2B NMDA receptor (Rattus norvegicus, UniProt P35439+Q00960); format: cell-based; conditions: 10 μM L-glutamate plus 10 μM glycine, ± s.e.m., n ≥ 4
Chain of GluN1/GluN2B NMDA receptor (Q00960 27-1482, other chains not shown): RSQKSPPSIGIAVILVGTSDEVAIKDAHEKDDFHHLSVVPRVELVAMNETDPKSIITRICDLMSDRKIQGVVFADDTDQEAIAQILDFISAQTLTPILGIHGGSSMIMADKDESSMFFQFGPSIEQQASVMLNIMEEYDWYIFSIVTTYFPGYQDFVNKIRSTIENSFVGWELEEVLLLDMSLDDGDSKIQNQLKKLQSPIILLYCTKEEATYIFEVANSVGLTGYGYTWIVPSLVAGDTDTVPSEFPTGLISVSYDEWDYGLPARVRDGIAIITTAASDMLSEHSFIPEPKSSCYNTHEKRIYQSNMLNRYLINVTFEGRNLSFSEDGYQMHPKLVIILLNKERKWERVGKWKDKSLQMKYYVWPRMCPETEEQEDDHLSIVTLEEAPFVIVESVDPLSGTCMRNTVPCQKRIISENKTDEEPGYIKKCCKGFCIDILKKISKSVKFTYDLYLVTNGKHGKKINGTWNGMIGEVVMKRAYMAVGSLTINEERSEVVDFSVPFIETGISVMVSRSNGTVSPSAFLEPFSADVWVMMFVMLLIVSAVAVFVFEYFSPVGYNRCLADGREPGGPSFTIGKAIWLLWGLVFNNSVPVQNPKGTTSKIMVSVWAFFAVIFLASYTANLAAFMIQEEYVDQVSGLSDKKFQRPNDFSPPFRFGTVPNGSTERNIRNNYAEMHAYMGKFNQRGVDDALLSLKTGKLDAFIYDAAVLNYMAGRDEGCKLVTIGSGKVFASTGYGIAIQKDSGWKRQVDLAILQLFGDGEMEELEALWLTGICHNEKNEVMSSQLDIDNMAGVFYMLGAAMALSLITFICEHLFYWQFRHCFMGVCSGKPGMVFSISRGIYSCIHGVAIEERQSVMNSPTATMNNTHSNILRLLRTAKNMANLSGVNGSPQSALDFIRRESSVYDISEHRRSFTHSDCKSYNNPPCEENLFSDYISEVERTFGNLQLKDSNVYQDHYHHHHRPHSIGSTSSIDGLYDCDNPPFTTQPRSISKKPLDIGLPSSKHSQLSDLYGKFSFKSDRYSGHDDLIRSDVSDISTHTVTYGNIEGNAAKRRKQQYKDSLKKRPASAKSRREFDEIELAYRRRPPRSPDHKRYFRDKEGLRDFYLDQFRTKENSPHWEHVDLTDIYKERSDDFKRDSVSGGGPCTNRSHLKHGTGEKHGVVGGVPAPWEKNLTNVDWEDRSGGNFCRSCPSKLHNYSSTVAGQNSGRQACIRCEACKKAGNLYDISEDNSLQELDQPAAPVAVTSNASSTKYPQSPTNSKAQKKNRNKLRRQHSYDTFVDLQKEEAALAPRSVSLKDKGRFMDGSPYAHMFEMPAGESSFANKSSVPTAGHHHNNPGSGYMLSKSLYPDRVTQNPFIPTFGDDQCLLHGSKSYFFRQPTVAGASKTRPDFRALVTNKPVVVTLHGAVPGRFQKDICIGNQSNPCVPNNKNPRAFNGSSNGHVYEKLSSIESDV

[4] = molecular target: GluN1/GluN2A NMDA receptor (Rattus norvegicus, UniProt P35439+Q00959); format: cell-based; conditions: for IC50: IC50 GluN1/GluN2A
[5] = test system: GluN1/GluN2D receptors with the NTD deleted on both the GluN1 and GluN2 subunits; assay: Inhibition of NTD-deleted GluN1/GluN2D receptor responses in Xenopus oocytes; format: cell-based
[6] = molecular target: GluN1/GluN2D NMDA receptor (Rattus norvegicus, UniProt P35439+Q62645); format: cell-based; conditions: for IC50: IC50 GluN1/GluN2D
Chain of GluN1/GluN2D NMDA receptor (Q62645 28-1323, other chains not shown): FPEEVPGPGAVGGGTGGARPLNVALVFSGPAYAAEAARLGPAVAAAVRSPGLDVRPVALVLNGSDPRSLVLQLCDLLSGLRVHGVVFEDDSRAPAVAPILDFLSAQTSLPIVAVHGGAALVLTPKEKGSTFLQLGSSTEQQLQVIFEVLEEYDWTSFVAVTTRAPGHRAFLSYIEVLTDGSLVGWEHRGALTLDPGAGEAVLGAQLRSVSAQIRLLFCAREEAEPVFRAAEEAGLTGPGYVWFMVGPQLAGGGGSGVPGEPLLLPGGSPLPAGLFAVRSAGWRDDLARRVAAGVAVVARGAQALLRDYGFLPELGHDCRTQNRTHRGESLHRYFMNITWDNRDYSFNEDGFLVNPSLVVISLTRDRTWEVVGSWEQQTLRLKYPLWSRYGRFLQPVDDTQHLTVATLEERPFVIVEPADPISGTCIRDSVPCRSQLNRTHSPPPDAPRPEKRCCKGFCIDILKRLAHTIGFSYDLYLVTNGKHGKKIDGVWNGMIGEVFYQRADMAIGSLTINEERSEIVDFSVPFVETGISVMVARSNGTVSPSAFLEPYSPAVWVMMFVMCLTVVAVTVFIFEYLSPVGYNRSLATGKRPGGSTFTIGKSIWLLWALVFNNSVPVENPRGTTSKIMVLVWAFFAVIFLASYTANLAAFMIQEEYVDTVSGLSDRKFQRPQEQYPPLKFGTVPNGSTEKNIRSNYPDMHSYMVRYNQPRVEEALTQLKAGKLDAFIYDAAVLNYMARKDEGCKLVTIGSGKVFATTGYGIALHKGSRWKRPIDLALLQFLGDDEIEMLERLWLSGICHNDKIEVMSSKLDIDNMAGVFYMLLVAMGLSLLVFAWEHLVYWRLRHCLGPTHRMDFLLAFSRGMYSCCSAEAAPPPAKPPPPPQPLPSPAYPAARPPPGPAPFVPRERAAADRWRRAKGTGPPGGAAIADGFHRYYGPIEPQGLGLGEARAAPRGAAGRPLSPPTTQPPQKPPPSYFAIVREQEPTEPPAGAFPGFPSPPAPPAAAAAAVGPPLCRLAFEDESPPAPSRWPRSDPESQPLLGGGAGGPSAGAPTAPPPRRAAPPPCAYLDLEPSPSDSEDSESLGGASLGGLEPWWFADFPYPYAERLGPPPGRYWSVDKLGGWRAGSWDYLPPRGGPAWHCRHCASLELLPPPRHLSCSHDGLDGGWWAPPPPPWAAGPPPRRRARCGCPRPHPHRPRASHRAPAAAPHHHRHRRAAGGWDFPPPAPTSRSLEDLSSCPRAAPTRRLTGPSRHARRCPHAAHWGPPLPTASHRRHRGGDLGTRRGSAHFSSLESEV

AMPA receptors = assay: Preliminary studies of antagonist activity at AMPA receptors
[7] = molecular target: GluN1/GluN2C NMDA receptor (Rattus norvegicus, UniProt P35439+Q00961); format: cell-based; conditions: 10 μM L-glutamate plus 10 μM glycine, ± s.e.m., n ≥ 4
Chain of GluN1/GluN2C NMDA receptor (Q00961 20-1237, other chains not shown): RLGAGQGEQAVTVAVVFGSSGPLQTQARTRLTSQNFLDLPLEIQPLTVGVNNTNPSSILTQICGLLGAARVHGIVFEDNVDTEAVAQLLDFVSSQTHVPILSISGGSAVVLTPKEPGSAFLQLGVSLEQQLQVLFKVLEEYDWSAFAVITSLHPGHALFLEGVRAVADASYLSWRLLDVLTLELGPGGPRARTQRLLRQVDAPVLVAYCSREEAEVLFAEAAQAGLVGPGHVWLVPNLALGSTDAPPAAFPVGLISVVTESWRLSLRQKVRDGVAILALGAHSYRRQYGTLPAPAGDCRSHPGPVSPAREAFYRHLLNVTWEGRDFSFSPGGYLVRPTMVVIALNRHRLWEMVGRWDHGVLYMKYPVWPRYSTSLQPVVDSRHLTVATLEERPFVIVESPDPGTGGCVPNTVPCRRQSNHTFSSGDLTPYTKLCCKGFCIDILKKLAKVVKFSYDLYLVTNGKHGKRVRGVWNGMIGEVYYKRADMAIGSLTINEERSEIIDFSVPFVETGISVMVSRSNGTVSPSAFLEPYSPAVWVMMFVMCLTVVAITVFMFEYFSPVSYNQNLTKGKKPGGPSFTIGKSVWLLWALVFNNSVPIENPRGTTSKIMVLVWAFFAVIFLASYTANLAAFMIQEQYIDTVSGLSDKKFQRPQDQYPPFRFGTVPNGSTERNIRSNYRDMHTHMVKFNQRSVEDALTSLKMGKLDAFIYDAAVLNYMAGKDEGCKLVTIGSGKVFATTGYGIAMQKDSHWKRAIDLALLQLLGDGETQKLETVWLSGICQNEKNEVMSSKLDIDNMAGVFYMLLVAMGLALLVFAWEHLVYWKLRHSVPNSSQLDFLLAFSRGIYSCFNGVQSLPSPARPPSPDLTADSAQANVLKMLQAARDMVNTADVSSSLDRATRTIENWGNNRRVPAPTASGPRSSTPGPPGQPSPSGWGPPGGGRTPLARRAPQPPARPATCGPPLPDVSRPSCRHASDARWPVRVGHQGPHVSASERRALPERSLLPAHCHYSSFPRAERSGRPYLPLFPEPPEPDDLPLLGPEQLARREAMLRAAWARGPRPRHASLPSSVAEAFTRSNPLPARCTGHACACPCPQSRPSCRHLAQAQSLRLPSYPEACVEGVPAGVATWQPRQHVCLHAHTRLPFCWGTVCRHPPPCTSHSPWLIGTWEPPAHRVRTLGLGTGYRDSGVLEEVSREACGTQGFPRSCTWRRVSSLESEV

[8] = 10 μM L-glutamate plus 10 μM glycine, ± s.e.m., n ≥ 4
[9] = 10 μM L-glutamate plus 10 μM glycine, −60 mV, ± s.e.m., n ≥ 4

Compound: O=C(O)c1cc2cc(Br)ccc2c(Br)c1O [UBP552, 1,6-Dibromo-2-hydroxy-3-naphthoic acid]
ability to fully inhibit receptor responses ([1]; all GluN1/GluN2A-D receptors): able to fully inhibit all receptor responses
inhibition of receptor responses in the absence of the NTD ([2]; NTD deleted on GluN1 and GluN2A (Figure 4C)): still able to inhibit
effect of NTD deletion on inhibitory potency ([2]; compared with wild-type GluN1/GluN2A): increased the potency
% Max. Inh. GluN1/GluN2B [3]: 108.3 ± 2.0%
% Max. Inh. GluN1/GluN2A [4, 8]: 105.6 ± 4.3%
IC50 [4, 9]: 6.29 ± 0.88 µM
IC50 ([4]; [Gly] 10 μM, [L-Glu] 2.0 μM): 5.05 ± 0.73 µM
IC50 ([4]; [Gly] 10 μM, [L-Glu] 300 μM): 8.58 ± 0.84 µM
IC50 ([4]; [Gly] 300 μM, [L-Glu] 10 μM): 10 ± 1.93 µM
IC50 ([4]; [Gly] 300 μM, [L-Glu] 300 μM): 15.5 ± 1.73 µM
inhibition of receptor responses in the absence of the NTD ([5]; NTD deleted on GluN1 and GluN2D (Figure 4C)): still able to inhibit
effect of NTD deletion on inhibitory potency ([5]; compared with wild-type GluN1/GluN2D): decreased the inhibitory potency
% Max. Inh. GluN1/GluN2D [6, 8]: 103.6 ± 2.2%
effect on oocytes expressing GluN1/GluN2D receptors without agonists ([6]; 100 μM compound in the absence of L-glutamate and glycine): no detectable effect
IC50 [6, 9]: 3.35 ± 0.18 µM
IC50 ([6]; [Gly] 10 μM, [L-Glu] 0.3 μM): 6.26 ± 0.58 µM
IC50 ([6]; [Gly] 10 μM, [L-Glu] 300 μM): 3.35 ± 0.82 µM
IC50 ([6]; [Gly] 300 μM, [L-Glu] 10 μM): 3.73 ± 0.75 µM
IC50 ([6]; [Gly] 300 μM, [L-Glu] 300 μM): 4.85 ± 0.27 µM
decrease of IC50 values ([6]; increasing L-glutamate from 0.3 μM to 10 μM or to 300 μM, p < 0.05): 46%
antagonist activity at AMPA receptors (AMPA receptors): has antagonist activity

Compound: O=C(O)c1cc2cc(-c3ccccc3)ccc2cc1O [UBP617, 2-hydroxy-6-phenyl-3-naphthoic acid]
% Max. Inh. GluN1/GluN2B [3]: 56.8 ± 5.2^c-ic-ic-ic-iI %
% Max. Inh. GluN1/GluN2A [4, 8]: 71.5 ± 6.4C^c-iHI %

Compound: Oc1ccc2cc(Br)ccc2c1Br [UBP644, 1,6-dibromo-2-naphthol]
Inhibitory activity at NMDA receptors (Figure 2) ([1]; compound at 100 μM, GluN1/GluN2A-D, 10 μM L-glutamate plus 10 μM glycine): virtually inactive; also recorded: eliminated activity

Now from value to compound:

% Max. Inh. GluN1/GluN2C [7]: 77.3 ± 5.0^EHI %
% Max. Inh. GluN1/GluN2B [3]: 82.1 ± 3.1%
% Max. Inh. GluN1/GluN2A [4, 8]: 78.8 ± 2.5^CHI %
% Max. Inh. GluN1/GluN2D [6, 8]: 97.0 ± 2.2%
Compound: O=C(O)c1cc2cc(-c3ccccc3)ccc2c(I)c1O [UBP619, 2-hydroxy-1-iodo-6-phenyl-3-naphthoic acid]

% Max. Inh. GluN1/GluN2C [7]: 96.1 ± 2.3%
% Max. Inh. GluN1/GluN2B [3]: 90% and 90.6 ± 10.7%
% Max. Inh. GluN1/GluN2A [4, 8]: 90% and 90.5 ± 7.4%
% Max. Inh. GluN1/GluN2D [6, 8]: 107.1 ± 4.3%
Compound: O=C(O)c1cc2cc(Br)ccc2c(I)c1O [UBP620, 6-bromo-2-hydroxy-1-iodo-3-naphthoic acid]

% Max. Inh. GluN1/GluN2C [7]: 103.0 ± 7.1%
% Max. Inh. GluN1/GluN2B [3]: 84.4 ± 12.5%
% Max. Inh. GluN1/GluN2A [4, 8]: 104.3 ± 4.3%
fold lower potency than UBP552 at GluN1/GluN2A ([4]; from IC50 values, Table 1): 3 fold
% Max. Inh. GluN1/GluN2D [6, 8]: 112.4 ± 21.3%
fold lower potency than UBP552 for GluN1/GluN2D ([6]; from IC50 values, Table 1): 33 fold
Compound: O=C(O)c1cc(Br)c2ccc(Br)cc2c1 [UBP628, 1,6-Dibromo-3-naphthoic acid]
